Measurements as given in patent US20110076293A1, “TRIPTOLIDE DERIVATIVES FOR MODULATION OF APOPTOSIS AND IMMUNOSUPPRESSION” (priority 2002, published 2011).

Test system: IL-2 production in Jurkat human T lymphocyte cells
Experiment: IL-2 production assay for activity of compounds incubated with human serum
[1] = Table 7, Jurkat cells (48 hrs), 0.001 nM
[2] = Table 7, Jurkat cells (48 hrs), 0.01 nM
[3] = Table 7, Jurkat cells (48 hrs), 0.1 nM
[4] = Table 7, Jurkat cells (48 hrs), 1 nM
[5] = Table 7, Jurkat cells (48 hrs), 10 nM
[6] = Table 7, Jurkat cells (48 hrs), 100 nM
[7] = Table 7, Jurkat cells (48 hrs), 1000 nM
[8] = Table 7, Jurkat cells (48 hrs), 10000 nM
[9] = Table 8, Jurkat cells, 0.0001 nM
[10] = Table 8, Jurkat cells, 0.001 nM
[11] = Table 8, Jurkat cells, 10000 nM

| SMILES | IL-2 pg/mL at given concentration (nM) [1] [pg/mL] | IL-2 pg/mL at given concentration (nM) [2] [pg/mL] | IL-2 pg/mL at given concentration (nM) [3] [pg/mL] | IL-2 pg/mL at given concentration (nM) [4] [pg/mL] | IL-2 pg/mL at given concentration (nM) [5] [pg/mL] | IL-2 pg/mL at given concentration (nM) [6] [pg/mL] | IL-2 pg/mL at given concentration (nM) [7] [pg/mL] | IL-2 pg/mL at given concentration (nM) [8] [pg/mL] | IL-2 pg/mL at given concentration (nM) [9] [pg/mL] | IL-2 pg/mL at given concentration (nM) [10] [pg/mL] | IL-2 pg/mL at given concentration (nM) (Table 8, Jurkat cells, 0.01 nM) [pg/mL] | IL-2 pg/mL at given concentration (nM) (Table 8, Jurkat cells, 0.1 nM) [pg/mL] | IL-2 pg/mL at given concentration (nM) (Table 8, Jurkat cells, 1 nM) [pg/mL] | IL-2 pg/mL at given concentration (nM) (Table 8, Jurkat cells, 10 nM) [pg/mL] | IL-2 pg/mL at given concentration (nM) (Table 8, Jurkat cells, 100 nM) [pg/mL] | IL-2 pg/mL at given concentration (nM) (Table 8, Jurkat cells, 1000 nM) [pg/mL] | IL-2 pg/mL at given concentration (nM) [11] [pg/mL] | further results |
| --- | --- | --- | --- | --- | --- | --- | --- | --- | --- | --- | --- | --- | --- | --- | --- | --- | --- | --- |
| CC(C)[C@]12O[C@H]1[C@@H]1O[C@]13[C@]1(O[C@H]1C[C@H]1C4=C(CC[C@@]13C)C(=O)OC4)[C@@H]2OC(=O)CCC(=O)O [PG490-88, triptolide-14-succinate, reference compound] | 776.4 | 771.0 | 809.5 | 732.4 | 605.1 | 317.5 | 65.9 | 58.2 | 96.1 | 83.0 | 87.5 | 86.3 | 88.2 | 42.7 | 14.0 | 8.4 | 23.8 | IC50 (IL-2 production in Jurkat cells after incubation with pooled human serum for 48 hours at 37° C.): 9 nM; Conversion (%) (percent of the IC50 value produced by triptolide (PG490) in the same experiment, human serum 48 hours): 51% |
| CCNC(=O)O[C@@H]1[C@@]2(C(C)C)O[C@H]2[C@@H]2O[C@]23[C@]12O[C@H]2C[C@H]1C2=C(CC[C@@]13C)C(=O)OC2 [PG666, Triptolide 14-Ethyl Carbamate] | 844.6 | 799.8 | 860.6 | 773.0 | 819.1 | 528.0 | 180.1 | 63.5 | 94.3 | 105.1 | 97.0 | 92.8 | 80.0 | 89.8 | 33.3 | 10.0 | 8.0 | concentration for equal IL-2 inhibitory activity relative to the active concentration of PG490: 10-30 times; bioactivity in IL-2 inhibition assays (in words) (FIGS. 4-5): some level of bioactivity |
| CC(C)[C@]12O[C@H]1[C@@H]1O[C@]13[C@]1(O[C@H]1C[C@H]1C4=C(CC[C@@]13C)C(=O)OC4)[C@@H]2O [PG490, Triptolide] | 929.7 | 908.6 | 937.8 | 835.2 | 556.1 | 120.7 | 62.9 | 59.2 | 80.0 | 97.2 | 83.2 | 87.1 | 75.7 | 25.5 | 17.8 | 12.9 | 22.3 | – |
